This passage reports fold induction, melting point and solubility results from patent US10570117B2, “Phenylimidazole compound” (Otsuka Pharmaceutical Factory, Inc., priority 2015, dated 2020).

Each structure is given as a SMILES string. Converted amounts (≈) assume the structure as drawn. Where two headings read alike, the source gives them in different places.

Data set [1] has as its system lipoprotein lipase (LPL) gene. The experiment in a line: LPL mRNA elevating action (RT-PCR quantification of LPL mRNA in C2Cl2 cells). The format is cell-based, mouse. To be noted: Mus musculus, 24 h, compound 10 μM, ratio relative to the amount of LPL mRNA in cells with DMSO only, read-out: Rate of increase in LPL mRNA. Put shortly:
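Mouse striated-muscle C2Cl2 cells in DMEM with 10% FBS exposed to compounds at 10 μM for 24 h. LPL mRNA quantified by RT-PCR and real-time PCR (20 cycles), expressed as ratio to DMSO-only cells set at 1.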

A short description of data set [2]: Solubility in gastric juice or intestinal juice model fluid (precipitation method using DMSO). It is filed as physicochemical. To be noted: room temperature. Put shortly:
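Compound in DMSO added to JP disintegration test fluid 1 (pH 1.2) or fluid 2 (pH 6.8) and shaken 24 h at room temperature. After filtration, dissolved concentration (μg/mL) determined by UV absorbance against compound calibration curves.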

Setting [3] is: pH 1.2, simulated gastric fluid, kinetic from dmso stock, 1st fluid for Disintegration Test of Japanese Pharmacopoeia (pH: 1.2), read-out: Solubility (μg/mL) 1st fluid.
Setting [4] is: pH 6.8, kinetic from dmso stock, 2nd fluid for Disintegration Test of Japanese Pharmacopoeia (pH: 6.8), read-out: Solubility (μg/mL) 2nd fluid.

The compound `COc1cc(OCc2ncc(C(F)(F)F)cc2F)ccc1-c1[nH]c(C(C)C)nc1Cl` [Example 385] returned a melting point of 131 to 135 °C. Besides, in data set [1], the fold induction at 10 µM was found to be 3.18. Moreover, the solubility at 24 h in data set [2] (setting [3]) is 84.7 µg/mL (≈ 191 µM). The solubility at 24 h in data set [2] (setting [4]) came out at 2.1 µg/mL (≈ 4.73 µM).

Turning to `COc1cc(-c2[nH]c(C(C)C)nc2Cl)ccc1OCc1ncc(C(F)(F)F)cc1F` [Example 386], the melting point was 188 to 191 °C (dec.). In data set [1], the fold induction at 10 µM worked out at 2.77. Also, the solubility at 24 h in data set [2] (setting [3]) is 82.7 µg/mL (≈ 186 µM). In data set [2] (setting [4]), the solubility at 24 h is 0.9 µg/mL (≈ 2.03 µM).

The compound `COc1cc(OCc2ncc(C(F)(F)F)cc2F)ccc1-c1cnc(-c2ccc(Br)nc2)[nH]1` [Example 387] yielded a melting point of 191 to 193 °C. Besides, in data set [1], the fold induction at 10 µM was 2.41. The solubility at 24 h in data set [2] (setting [3]) is 4.8 µg/mL (≈ 9.17 µM). Also, the solubility at 24 h in data set [2] (setting [4]) was found to be 0.8 µg/mL (≈ 1.53 µM).

Compound `COc1cc(OCc2ccc(C(F)(F)F)nc2)ccc1-c1cnc(-c2ccc(Br)nc2)[nH]1` [Example 388] returned a melting point of 222 to 224 °C. For the same compound, the fold induction at 10 µM in data set [1] came to 2.13. Besides, the solubility at 24 h in data set [2] (setting [3]) was 0.8 µg/mL (≈ 1.58 µM). The solubility at 24 h in data set [2] (setting [4]) is less than 0.4 µg/mL.

`COc1cc(OCc2ncc(C(F)(F)F)cc2F)ccc1-c1cnc(CCC(F)(F)F)[nH]1` [Example 390] showed a melting point of 76 to 91 °C. The fold induction at 10 µM in data set [1] was found to be 2.09. Also, in data set [2] (setting [3]), the solubility at 24 h is 49.5 µg/mL (≈ 107 µM). Moreover, in data set [2] (setting [4]), the solubility at 24 h worked out at 21.6 µg/mL (≈ 46.6 µM).

Compound `Fc1cc(C(F)(F)F)cnc1COc1ccc(-c2cnc(C3CC(F)(F)C3)[nH]2)cc1` [Example 393] gave a melting point of 191 to 196 °C. The fold induction at 10 µM in data set [1] amounted to 1.26. Also, the solubility at 24 h in data set [2] (setting [3]) is more than 85 µg/mL. In data set [2] (setting [4]), the solubility at 24 h was 1.9 µg/mL (≈ 4.45 µM).

For `COc1cc(OCc2ncc(C(F)(F)F)cc2F)ccc1-c1[nH]c(CCC(F)(F)F)nc1Cl` [Example 394], the melting point lay within 154 to 159 °C. Moreover, in data set [1], the fold induction at 10 µM stood at 2.39. The solubility at 24 h in data set [2] (setting [3]) was 96.3 µg/mL (≈ 193 µM). Besides, in data set [2] (setting [4]), the solubility at 24 h is less than 0.4 µg/mL.

Take `COc1cc(-c2[nH]c(CCC(F)(F)F)nc2Cl)ccc1OCc1ncc(C(F)(F)F)cc1F` [Example 395]: the melting point fell in the range of 116 to 119 °C. The fold induction at 10 µM in data set [1] turned out to be 2.61. In data set [2] (setting [3]), the solubility at 24 h is 3.8 µg/mL (≈ 7.63 µM). In addition, the solubility at 24 h in data set [2] (setting [4]) was less than 0.4 µg/mL.

Consider `COc1cc(-c2[nH]c(-c3ccc(F)nc3)nc2Cl)ccc1OC(C)c1ncc(C(F)(F)F)cc1F` (stereo not shown) [Example 396], for which the melting point was in the range of 113 to 118 °C. Besides, the fold induction at 10 µM in data set [1] was found to be 2.93. The solubility at 24 h in data set [2] (setting [3]) is 28 µg/mL (≈ 54.8 µM). Moreover, the solubility at 24 h in data set [2] (setting [4]) is less than 0.4 µg/mL.

Consider `Fc1cc(C(F)(F)F)cnc1COc1ccc(-c2[nH]c(C3CC(F)(F)C3)nc2Cl)cc1` [Example 397], for which the melting point fell in the range of 162 to 167 °C. Also, the fold induction at 10 µM in data set [1] stood at 4.58. Besides, the solubility at 24 h in data set [2] (setting [3]) was 15.9 µg/mL (≈ 34.4 µM). Also, the solubility at 24 h in data set [2] (setting [4]) is less than 0.3 µg/mL.

The compound `COc1cc(OCc2ncc(C(F)(F)F)cc2F)ccc1-c1[nH]c(C2CC(F)(F)C2)nc1C` [Example 399] registered a melting point of 172 to 174 °C. Further, the fold induction at 10 µM in data set [1] was determined as 4.68. In data set [2] (setting [3]), the solubility at 24 h is 54.1 µg/mL (≈ 115 µM). For the same compound, in data set [2] (setting [4]), the solubility at 24 h came to 3.4 µg/mL (≈ 7.21 µM).

With `COc1cc(OCc2ncc(C(F)(F)F)cc2F)ccc1-c1[nH]c(C2CC(F)(F)C2)nc1Br` [Example 400], the melting point lay within 192 to 195 °C. For the same compound, the fold induction at 10 µM in data set [1] was determined as 4.49. Also, in data set [2] (setting [3]), the solubility at 24 h is 97.1 µg/mL (≈ 181 µM). In addition, in data set [2] (setting [4]), the solubility at 24 h stood at 0.6 µg/mL (≈ 1.12 µM).

With `Oc1cc(OCc2ncc(C(F)(F)F)cc2F)ccc1-c1cnc(-c2ccc(F)nc2)[nH]1` [Example 406, 5-[[3-fluoro-5-(trifluoromethyl)pyridin-2-yl]methoxy]-2-[2-(6-fluoropyridin-3-yl)-1H-imidazol-5-yl]phenol], the melting point lay within 202 to 207 °C. The fold induction at 10 µM in data set [1] is 2.62. Further, in data set [2] (setting [3]), the solubility at 24 h was more than 90 µg/mL. Besides, the solubility at 24 h in data set [2] (setting [4]) was found to be 12.4 µg/mL (≈ 27.7 µM).

Consider `Oc1cc(OCc2ncc(C(F)(F)F)cc2F)ccc1-c1[nH]c(-c2ccc(F)nc2)nc1Cl` [Example 407], for which the melting point is 229 to 233 °C (dec.). In addition, the fold induction at 10 µM in data set [1] was determined as 1.68. Further, in data set [2] (setting [3]), the solubility at 24 h is 2.7 µg/mL (≈ 5.59 µM). Further, the solubility at 24 h in data set [2] (setting [4]) is less than 0.3 µg/mL.

On to `Oc1cc(OCc2ncc(C(F)(F)F)cc2F)ccc1-c1[nH]c(-c2ccc(F)nc2)nc1Br` [Example 408], for which the melting point was 202 to 204 °C. The fold induction at 10 µM in data set [1] is 1.24. Also, in data set [2] (setting [3]), the solubility at 24 h was 1.9 µg/mL (≈ 3.6 µM). For the same compound, in data set [2] (setting [4]), the solubility at 24 h was less than 0.4 µg/mL.

In turn, `COc1cc(OCc2ccc(C(F)(F)F)nc2)ccc1-c1[nH]c(-c2ccc(F)nc2)nc1C#N` [Example 409] registered a melting point of 212 to 219 °C. The fold induction at 10 µM in data set [1] is 1.34. In data set [2] (setting [3]), the solubility at 24 h is 1.3 µg/mL (≈ 2.77 µM). For the same compound, the solubility at 24 h in data set [2] (setting [4]) is 1.9 µg/mL (≈ 4.05 µM).

For the compound `COc1cc(OCc2ccc(C(F)(F)F)nc2)ccc1-c1nc(-c2ccc(F)nc2)n(C)c1C#N` [Example 410], the melting point lay within 165 to 167 °C. The fold induction at 10 µM in data set [1] stood at 0.42. In addition, the solubility at 24 h in data set [2] (setting [3]) is 1.1 µg/mL (≈ 2.28 µM). Also, the solubility at 24 h in data set [2] (setting [4]) was less than 0.3 µg/mL.

For `COc1cc(OCc2ncc(C(F)(F)F)cc2F)ccc1-c1[nH]c(-c2ccc(F)nc2)nc1C(F)(F)F` [Example 411, 3-fluoro-2-[[4-(2-(6-fluoropyridin-3-yl)-4-(trifluoromethyl)-1H-imidazol-5-yl)-3-methoxyphenoxy]methyl]-5-(trifluoromethyl)pyridine], the melting point fell in the range of 181 to 182 °C. The fold induction at 10 µM in data set [1] came to 1.62. Further, in data set [2] (setting [3]), the solubility at 24 h is 3.1 µg/mL (≈ 5.84 µM). Besides, the solubility at 24 h in data set [2] (setting [4]) was found to be 3 µg/mL (≈ 5.66 µM).

In turn, `COc1cc(OCc2ccc(C(F)(F)F)nc2)ccc1-c1[nH]c(-c2ccc(F)nc2)nc1C(F)(F)F` [Example 412] gave a melting point of 222 to 224 °C. In addition, in data set [1], the fold induction at 10 µM was 1.41. The solubility at 24 h in data set [2] (setting [3]) was 0.6 µg/mL (≈ 1.17 µM). The solubility at 24 h in data set [2] (setting [4]) stood at 1.5 µg/mL (≈ 2.93 µM).

By melting point is commonly meant the temperature, or range, at which the solid turns liquid.
